What is called pEC50 is the negative decadic logarithm of the EC50, by convention in mol/L.

This test has as its system HBV. The test is described as follows: HBV replication inhibition assay (BDNA assay) in HepG2.2.15 cells. It counts as cell-based. The settings on record: HepG2.2.15 cells, read-out: DNA EC50. Summed up:
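Supernatant encapsidated HBV DNA was measured by bDNA after DNase digestion and proteinase K release. Stably HBV-integrated HepG2.2.15 cells had two 3-day compound exposures (0.5% DMSO). Signals were background-subtracted and normalized to DMSO wells, and EC50 was obtained by four-parameter fit.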

[1] abbreviates: HBV replication assay (BDNA assay).
[2] abbreviates: Hepatitis B virus, HepG2.2.15, HBV replication assay (BDNA assay).

pEC50: −log10 of the molar value. Read-outs that look alike come from different tables or passages of the source.

As for `CNC(=O)C1Cn2nc3c(c2C(=O)N(C)O1)CN(C(=O)Nc1ccc(F)c(C#N)c1)[C@H](C)C3` (stereo in doubt) [Compound 112_D1, (4S*,9R)—N10-(3-cyano-4-fluorophenyl)-N4,2,9-trimethyl-1-oxo-1,4,5,8,9,11-hexahydropyrido[4′,3′:3,4]pyrazolo[5,1-d][1,2,5]oxadiazepine-4,10(2H)-dicarboxamide], under setting [1], the pEC50 was less than 6.00.

With `Cc1ccc(Br)cc1NC(=O)N1CCc2nn3c(c2C1)C(=O)N(C)OC(CO)C3` (centres unmarked) [Compound 017, N-(5-bromo-2-methylphenyl)-4-(hydroxymethyl)-2-methyl-1-oxo-1,4,5,8,9,11-hexahydropyrido[4′,3′:3,4]pyrazolo[5,1-d][1,2,5]oxadiazepine-10(2H)-carboxamide], under setting [2], the negative logarithm of the EC50 (pEC50) is 7.00 to 9.00.

For `CCN1OC(CO)Cn2nc3c(c2C1=O)CN(C(=O)Nc1ccc(F)c(Cl)c1)CC3` (single isomer, unassigned) [Compound 060_E2, (R*)—N-(3-chloro-4-fluorophenyl)-2-ethyl-4-(hydroxymethyl)-1-oxo-1,4,5,8,9,11-hexahydropyrido[4′,3′:3,4]pyrazolo[5,1-d][1,2,5]oxadiazepine-10(2H)-carboxamide], the pEC50 under setting [1] is 7.00 to 9.00.

As for `CN1OC(CO)Cn2nc3c(c2C1=O)CN(C(=O)Nc1cccc(Br)c1)CC3` (centres unmarked) [Compound 001, N-(3-bromophenyl)-4-(hydroxymethyl)-2-methyl-1-oxo-1,4,5,8,9,11-hexahydropyrido[4′,3′:3,4]pyrazolo[5,1-d][1,2,5]oxadiazepine-10(2H)-carboxamide], the negative logarithm of the EC50 (pEC50) under setting [2] was 7.00 to 9.00.

Take `CN1OC(CF)Cn2nc3c(c2C1=O)CN(C(=O)Nc1ccnc(Br)c1F)CC3` (single isomer, unassigned) [Compound 041_E1, (S*)—N-(2-bromo-3-fluoropyridin-4-yl)-4-(fluoromethyl)-2-methyl-1-oxo-1,4,5,8,9,11-hexahydropyrido[4′,3′:3,4]pyrazolo[5,1-d][1,2,5]oxadiazepine-10(2H)-carboxamide]: the pEC50 under setting [2] is 7.00 to 9.00.

Regarding `C[C@@H]1Cc2nn3c(c2CN1C(=O)Nc1ccc(F)c(Br)c1)C(=O)N(C)OC(CN(C)C)C3` (stereo in doubt) [Compound 094_D2, (4R*,9R)—N-(3-bromo-4-fluorophenyl)-4-((dimethylamino)methyl)-2,9-dimethyl-1-oxo-1,4,5,8,9,11-hexahydropyrido[4′,3′:3,4]pyrazolo[5,1-d][1,2,5]oxadiazepine-10(2H)-carboxamide], the negative-log EC50 (pEC50) under setting [1] was 7.00 to 9.00.

On to `C[C@@H]1Cc2nn3c(c2CN1C(=O)Nc1ccc(F)c(C#N)c1)C(=O)N(C)OC(COCC(F)F)C3` (stereo in doubt) [Compound 124_D2, (4R*,9R)—N-(3-cyano-4-fluorophenyl)-4-((2,2-difluoroethoxy)methyl)-2,9-dimethyl-1-oxo-1,4,5,8,9,11-hexahydropyrido[4′,3′:3,4]pyrazolo[5,1-d][1,2,5]oxadiazepine-10(2H)-carboxamide], for which the negative-log EC50 (pEC50) under setting [1] was 7.00 to 9.00.

Take `CN1OC(C)(C)Cn2nc3c(c2C1=O)CN(C(=O)Nc1ccc(F)c(Cl)c1)CC3` [Compound 064, N-(3-chloro-4-fluoro-phenyl)-2,4,4-trimethyl-1-oxo-5,8,9,11-tetrahydro pyrido[2,3]pyrazolo[2,4-d][1,2,5]oxadiazepine-10-carboxamide]: the pEC50 under setting [2] is 7.00 to 9.00.

With `CN1O[C@@H](C[S@@+](C)[O-])Cn2nc3c(c2C1=O)CN(C(=O)Nc1ccc(F)c(Cl)c1)CC3` (stereo in doubt) [Compound 049_E3, (R*)—N-(3-chloro-4-fluorophenyl)-2-methyl-4-(((R*)-methylsulfinyl)methyl)-1-oxo-1,4,5,8,9,11-hexahydropyrido[4′,3′:3,4]pyrazolo[5,1-d][1,2,5]oxadiazepine-10(2H)-carboxamide], the negative logarithm of the EC50 (pEC50) under setting [2] was 7.00 to 9.00.

For `CN1OC(CO)Cn2nc3c(c2C1=O)CN(C(=O)Nc1cc(C(F)(F)F)c(F)cc1F)CC3` (single isomer, unassigned) [Compound 147_E1, (S*)—N-(2,4-difluoro-5-(trifluoromethyl)phenyl)-4-(hydroxymethyl)-2-methyl-1-oxo-1,4,5,8,9,11-hexahydropyrido[4′,3′:3,4]pyrazolo[5,1-d][1,2,5]oxadiazepine-10(2H)-carboxamide], the pEC50 under setting [2] was 7.00 to 9.00.

For `C[C@@H]1Cc2nn3c(c2CN1C(=O)Nc1ccnc(Br)c1F)C(=O)N(C)OC(CN(C)C)C3` (stereo in doubt) [Compound 095_D2, (4R*,9R)—N-(2-bromo-3-fluoropyridin-4-yl)-4-((dimethylamino)methyl)-2,9-dimethyl-1-oxo-1,4,5,8,9,11-hexahydropyrido[4′,3′:3,4]pyrazolo[5,1-d][1,2,5]oxadiazepine-10(2H)-carboxamide], the pEC50 under setting [1] was 6.30 to 7.00.

On to `CC(C)OC(=O)OCC1Cn2nc3c(c2C(=O)N(C)O1)CN(C(=O)Nc1ccc(F)c(Cl)c1)CC3` (centres unmarked) [Compound 053, (10-((3-chloro-4-fluorophenyl)carbamoyl)-2-methyl-1-oxo-1,2,4,5,8,9,10,11-octahydropyrido[4′,3′:3,4]pyrazolo[5,1-d][1,2,5]oxadiazepin-4-yl)methyl isopropyl carbonate], for which, under setting [2], the pEC50 is 7.00 to 9.00.

As for `CN1OC(C(=O)N2CCC(F)(F)C2)Cn2nc3c(c2C1=O)CN(C(=O)Nc1ccc(F)c(Cl)c1)CC3` (centres unmarked) [Compound 132, N-(3-chloro-4-fluorophenyl)-4-(3,3-difluoropyrrolidine-1-carbonyl)-2-methyl-1-oxo-1,4,5,8,9,11-hexahydropyrido[4′,3′:3,4]pyrazolo[5,1-d][1,2,5]oxadiazepine-10(2H)-carboxamide], the pEC50 under setting [2] was 7.00 to 9.00.

As for `C[C@@H]1Cc2nn3c(c2CN1C(=O)Nc1ccc(F)c(Cl)c1)C(=O)N(C)OC(COCC(F)F)C3` (single isomer, unassigned) [Compound 121_D1, (4S*,9R)—N-(3-chloro-4-fluorophenyl)-4-((2,2-difluoroethoxy)methyl)-2,9-dimethyl-1-oxo-1,4,5,8,9,11-hexahydropyrido[4′,3′:3,4]pyrazolo[5,1-d][1,2,5]oxadiazepine-10(2H)-carboxamide], the pEC50 under setting [2] was 7.00 to 9.00.

`C[C@@H]1Cc2nn3c(c2CN1C(=O)Nc1ccnc(Br)c1F)C(=O)N(C)OC(CN(C)C)C3` (stereo in doubt) [Compound 095_D1, (4S*,9R)—N-(2-bromo-3-fluoropyridin-4-yl)-4-((dimethylamino)methyl)-2,9-dimethyl-1-oxo-1,4,5,8,9,11-hexahydropyrido[4′,3′:3,4]pyrazolo[5,1-d][1,2,5]oxadiazepine-10(2H)-carboxamide]: the negative-log EC50 (pEC50) under setting [2] was 6.30 to 7.00.

As for `CN1OC(CF)Cn2nc3c(c2C1=O)CN(C(=O)Nc1ccc(F)c(Cl)c1)CC3` (single isomer, unassigned) [Compound 038_E1, (S*)—N-(3-chloro-4-fluorophenyl)-4-(fluoromethyl)-2-methyl-1-oxo-1,4,5,8,9,11-hexahydropyrido[4′,3′:3,4]pyrazolo[5,1-d][1,2,5]oxadiazepine-10(2H)-carboxamide], the pEC50 under setting [2] is 7.00 to 9.00.

As for `CN1OC(CO)Cn2nc3c(c2C1=O)CN(C(=O)Nc1ccc(F)c(C(F)(F)F)c1)CC3` (single isomer, unassigned) [Compound 011_E2, (R*)—N-(4-fluoro-3-(trifluoromethyl)phenyl)-4-(hydroxymethyl)-2-methyl-1-oxo-1,4,5,8,9,11-hexahydropyrido[4′,3′:3,4]pyrazolo[5,1-d][1,2,5]oxadiazepine-10(2H)-carboxamide], the negative logarithm of the EC50 (pEC50) under setting [1] is 7.00 to 9.00.

Take `C[C@@H]1Cc2nn3c(c2CN1C(=O)Nc1ccc(F)c(Br)c1)C(=O)N(C)N=C(COCC(F)F)C3` [Compound 236, (R)-N-(3-bromo-4-fluorophenyl)-4-((2,2-difluoroethoxy)methyl)-2,9-dimethyl-1-oxo-1,2,5,8,9,11-hexahydro-10H-pyrido[4′,3′:3,4]pyrazolo[5,1-d][1,2,5]triazepine-10-carboxamide]: under setting [2], the pEC50 is 7.00 to 9.00.

Turning to `C[C@@H]1Cc2nn3c(c2CN1C(=O)Nc1cc(Br)c(F)cc1F)C(=O)N(C)OC(COCC(F)F)C3` (single isomer, unassigned) [Compound 108_D2, (4R*,9R)—N-(5-bromo-2,4-difluorophenyl)-4-((2,2-difluoroethoxy)methyl)-2,9-dimethyl-1-oxo-1,4,5,8,9,11-hexahydropyrido[4′,3′:3,4]pyrazolo[5,1-d][1,2,5]oxadiazepine-10(2H)-carboxamide], the pEC50 under setting [1] was 7.00 to 9.00.

For the compound `CN1OC(CNC(=O)C(C)(C)C)Cn2nc3c(c2C1=O)CN(C(=O)Nc1ccc(F)c(Cl)c1)CC3` (centres unmarked) [Compound 201, N-(3-chloro-4-fluorophenyl)-2-methyl-1-oxo-4-(pivalamidomethyl)-1,4,5,8,9,11-hexahydropyrido[4′,3′:3,4]pyrazolo[5,1-d][1,2,5]oxadiazepine-10(2H)-carboxamide], the negative logarithm of the EC50 (pEC50) under setting [2] is 7.00 to 9.00.

For `CCCN1OCCn2nc3c(c2C1=O)CN(C(=O)Nc1ccc(F)c(Cl)c1)CC3` [Compound 068, N-(3-chloro-4-fluoro-phenyl)-1-oxo-2-propyl-5,8,9,11-tetrahydro-4H-pyrido[2,3]pyrazolo[2,4-c][1,2,5]oxadiazepine-10-carboxamide], the negative logarithm of the EC50 (pEC50) under setting [2] is 7.00 to 9.00.

As to `CN1OC(CNS(C)(=O)=O)Cn2nc3c(c2C1=O)CN(C(=O)Nc1ccc(F)c(Cl)c1)CC3` (centres unmarked) [Compound 165, N-(3-chloro-4-fluorophenyl)-2-methyl-4-(methylsulfonamidomethyl)-1-oxo-1,4,5,8,9,11-hexahydropyrido[4′,3′:3,4]pyrazolo[5,1-d][1,2,5]oxadiazepine-10(2H)-carboxamide], under setting [2], the pEC50 was 7.00 to 9.00.

On to `COC(=O)NCC1Cn2nc3c(c2C(=O)N(C)O1)CN(C(=O)Nc1ccc(F)c(C(F)(F)F)c1)[C@H](C)C3` (single isomer, unassigned) [Compound 181_D1, methyl(((4S*,9R)-10-((4-fluoro-3-(trifluoromethyl)phenyl)carbamoyl)-2,9-dimethyl-1-oxo-1,2,4,5,8,9,10,11-octahydropyrido[4′,3′:3,4]pyrazolo[5,1-d][1,2,5]oxadiazepin-4-yl)methyl)carbamate], for which, under setting [2], the pEC50 was 7.00 to 9.00.
